The source made the active and inactive calls.
What was measured:
Phospholipase D1 = target: T1, Phospholipase D1 (Homo sapiens, UniProt Q13393); test: cellular phospholipase D1 inhibition IC50 – cell-based, dose response (AID 602151); type: functional;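 further: cellular PLD1 assay in Calu-1 cells stimulated with PMA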
T1 sequence (Q13393 whole entry): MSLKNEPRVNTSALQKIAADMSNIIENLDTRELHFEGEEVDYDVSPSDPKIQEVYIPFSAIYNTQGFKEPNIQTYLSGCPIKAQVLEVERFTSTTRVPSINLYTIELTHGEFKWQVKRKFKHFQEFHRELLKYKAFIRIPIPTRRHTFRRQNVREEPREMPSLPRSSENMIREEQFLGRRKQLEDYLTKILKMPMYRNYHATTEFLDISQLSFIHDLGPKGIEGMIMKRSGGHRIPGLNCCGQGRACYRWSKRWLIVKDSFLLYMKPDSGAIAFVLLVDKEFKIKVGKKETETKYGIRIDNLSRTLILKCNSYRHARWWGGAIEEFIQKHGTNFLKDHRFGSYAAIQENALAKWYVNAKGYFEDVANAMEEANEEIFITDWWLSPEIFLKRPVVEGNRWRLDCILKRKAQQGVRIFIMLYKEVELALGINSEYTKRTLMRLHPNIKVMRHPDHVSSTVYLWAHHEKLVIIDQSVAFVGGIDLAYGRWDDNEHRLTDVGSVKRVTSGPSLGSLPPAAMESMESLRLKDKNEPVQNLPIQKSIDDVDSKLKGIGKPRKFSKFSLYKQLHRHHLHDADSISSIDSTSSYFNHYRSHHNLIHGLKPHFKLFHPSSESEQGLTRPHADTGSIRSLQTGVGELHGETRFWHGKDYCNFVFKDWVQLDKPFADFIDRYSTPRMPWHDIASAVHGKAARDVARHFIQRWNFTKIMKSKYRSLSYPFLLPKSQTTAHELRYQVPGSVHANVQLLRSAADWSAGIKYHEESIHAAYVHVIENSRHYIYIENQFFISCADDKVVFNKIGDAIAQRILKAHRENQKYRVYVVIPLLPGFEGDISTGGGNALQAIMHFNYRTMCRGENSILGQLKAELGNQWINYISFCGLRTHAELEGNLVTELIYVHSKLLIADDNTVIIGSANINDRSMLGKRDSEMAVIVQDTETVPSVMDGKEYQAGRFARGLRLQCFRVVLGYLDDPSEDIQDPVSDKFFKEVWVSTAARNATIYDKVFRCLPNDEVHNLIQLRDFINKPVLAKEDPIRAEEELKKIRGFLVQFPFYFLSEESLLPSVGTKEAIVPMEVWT

Phospholipase D2 = Phospholipase D2 (Homo sapiens, UniProt O14939); test: cellular phospholipase D2 inhibition IC50 – cell-based, dose response (AID 602147); type: functional;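 further: cellular assay in HEK293 cells overexpressing GFP-tagged PLD2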
Chain of Phospholipase D2 (O14939 whole entry): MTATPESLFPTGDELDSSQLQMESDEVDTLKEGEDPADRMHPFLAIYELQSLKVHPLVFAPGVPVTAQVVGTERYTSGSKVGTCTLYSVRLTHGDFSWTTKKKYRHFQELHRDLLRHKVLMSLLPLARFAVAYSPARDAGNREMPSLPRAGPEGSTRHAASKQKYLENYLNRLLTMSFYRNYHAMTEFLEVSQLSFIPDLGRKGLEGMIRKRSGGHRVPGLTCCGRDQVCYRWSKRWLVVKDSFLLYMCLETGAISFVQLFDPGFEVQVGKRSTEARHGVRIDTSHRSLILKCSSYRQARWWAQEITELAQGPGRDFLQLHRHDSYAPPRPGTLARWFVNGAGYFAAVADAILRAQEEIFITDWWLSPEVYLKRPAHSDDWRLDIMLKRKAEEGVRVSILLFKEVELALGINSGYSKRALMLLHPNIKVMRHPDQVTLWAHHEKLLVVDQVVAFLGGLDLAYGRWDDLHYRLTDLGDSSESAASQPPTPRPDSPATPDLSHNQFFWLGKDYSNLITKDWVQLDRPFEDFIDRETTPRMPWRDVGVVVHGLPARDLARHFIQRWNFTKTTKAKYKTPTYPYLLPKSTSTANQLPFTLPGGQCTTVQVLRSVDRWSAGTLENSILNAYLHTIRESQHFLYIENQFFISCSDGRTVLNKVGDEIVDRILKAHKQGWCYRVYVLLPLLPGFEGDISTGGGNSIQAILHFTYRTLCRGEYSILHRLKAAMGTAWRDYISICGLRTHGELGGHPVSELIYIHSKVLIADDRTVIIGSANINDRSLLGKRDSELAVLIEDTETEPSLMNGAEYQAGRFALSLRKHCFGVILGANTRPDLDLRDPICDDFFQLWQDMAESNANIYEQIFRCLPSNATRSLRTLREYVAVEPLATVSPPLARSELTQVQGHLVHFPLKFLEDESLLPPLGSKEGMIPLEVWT

[1] = target: Glucose-6-phosphate 1-dehydrogenase (Homo sapiens, UniProt P11413); test: inhibition of Homo sapiens G6PD, dose series – biochemical, fluorescence, selectivity assay for P. falciparum G6PD inhibitor project, dose response (AID 504792); type: functional
Chain of Glucose-6-phosphate 1-dehydrogenase (P11413 whole entry): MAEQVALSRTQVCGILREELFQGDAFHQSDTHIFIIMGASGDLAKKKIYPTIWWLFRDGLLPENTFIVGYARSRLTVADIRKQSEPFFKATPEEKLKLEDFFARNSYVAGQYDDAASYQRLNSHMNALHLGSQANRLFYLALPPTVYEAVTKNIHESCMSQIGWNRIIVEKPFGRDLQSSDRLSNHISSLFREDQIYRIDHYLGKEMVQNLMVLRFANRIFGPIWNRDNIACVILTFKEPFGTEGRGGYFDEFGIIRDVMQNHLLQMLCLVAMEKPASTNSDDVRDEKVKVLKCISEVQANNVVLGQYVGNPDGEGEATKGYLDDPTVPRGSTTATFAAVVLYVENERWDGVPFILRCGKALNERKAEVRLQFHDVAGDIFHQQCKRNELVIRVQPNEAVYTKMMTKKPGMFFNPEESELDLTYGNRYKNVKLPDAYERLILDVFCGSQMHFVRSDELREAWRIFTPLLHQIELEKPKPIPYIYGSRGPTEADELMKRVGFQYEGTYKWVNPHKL

[2] = target: T2, Replicative DNA helicase DnaB (Mycobacterium tuberculosis, UniProt P9WMR3); test: DnaB intein splicing inhibitors, dose response, biochemical, cell-free fluorescence (AID 449749); type: functional
T2 sequence (P9WMR3 whole entry): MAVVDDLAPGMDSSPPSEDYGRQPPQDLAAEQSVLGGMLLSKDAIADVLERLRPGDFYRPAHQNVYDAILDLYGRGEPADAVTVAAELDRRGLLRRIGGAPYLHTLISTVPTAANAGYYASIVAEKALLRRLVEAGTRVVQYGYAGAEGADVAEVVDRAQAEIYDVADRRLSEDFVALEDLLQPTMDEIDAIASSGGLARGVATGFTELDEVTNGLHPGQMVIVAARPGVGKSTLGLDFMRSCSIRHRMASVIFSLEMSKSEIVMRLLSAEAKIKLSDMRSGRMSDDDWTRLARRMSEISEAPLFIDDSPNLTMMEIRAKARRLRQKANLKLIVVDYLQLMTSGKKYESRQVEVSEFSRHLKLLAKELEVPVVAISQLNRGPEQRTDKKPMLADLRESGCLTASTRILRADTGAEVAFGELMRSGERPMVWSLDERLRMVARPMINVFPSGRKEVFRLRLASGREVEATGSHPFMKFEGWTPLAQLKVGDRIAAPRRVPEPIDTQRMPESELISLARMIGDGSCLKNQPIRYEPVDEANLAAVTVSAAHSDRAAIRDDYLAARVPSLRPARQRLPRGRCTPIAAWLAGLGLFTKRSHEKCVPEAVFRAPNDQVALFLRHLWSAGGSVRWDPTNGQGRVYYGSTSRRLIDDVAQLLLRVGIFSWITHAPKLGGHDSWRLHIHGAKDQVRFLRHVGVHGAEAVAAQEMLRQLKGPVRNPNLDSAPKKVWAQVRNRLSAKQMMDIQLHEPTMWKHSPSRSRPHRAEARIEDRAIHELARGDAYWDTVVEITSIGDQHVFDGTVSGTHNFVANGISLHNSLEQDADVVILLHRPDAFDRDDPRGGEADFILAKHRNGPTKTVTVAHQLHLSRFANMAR

[3] = target: T3, Apoptotic protease-activating factor 1 (Homo sapiens, UniProt O14727); type: functional
T3 sequence (O14727 whole entry): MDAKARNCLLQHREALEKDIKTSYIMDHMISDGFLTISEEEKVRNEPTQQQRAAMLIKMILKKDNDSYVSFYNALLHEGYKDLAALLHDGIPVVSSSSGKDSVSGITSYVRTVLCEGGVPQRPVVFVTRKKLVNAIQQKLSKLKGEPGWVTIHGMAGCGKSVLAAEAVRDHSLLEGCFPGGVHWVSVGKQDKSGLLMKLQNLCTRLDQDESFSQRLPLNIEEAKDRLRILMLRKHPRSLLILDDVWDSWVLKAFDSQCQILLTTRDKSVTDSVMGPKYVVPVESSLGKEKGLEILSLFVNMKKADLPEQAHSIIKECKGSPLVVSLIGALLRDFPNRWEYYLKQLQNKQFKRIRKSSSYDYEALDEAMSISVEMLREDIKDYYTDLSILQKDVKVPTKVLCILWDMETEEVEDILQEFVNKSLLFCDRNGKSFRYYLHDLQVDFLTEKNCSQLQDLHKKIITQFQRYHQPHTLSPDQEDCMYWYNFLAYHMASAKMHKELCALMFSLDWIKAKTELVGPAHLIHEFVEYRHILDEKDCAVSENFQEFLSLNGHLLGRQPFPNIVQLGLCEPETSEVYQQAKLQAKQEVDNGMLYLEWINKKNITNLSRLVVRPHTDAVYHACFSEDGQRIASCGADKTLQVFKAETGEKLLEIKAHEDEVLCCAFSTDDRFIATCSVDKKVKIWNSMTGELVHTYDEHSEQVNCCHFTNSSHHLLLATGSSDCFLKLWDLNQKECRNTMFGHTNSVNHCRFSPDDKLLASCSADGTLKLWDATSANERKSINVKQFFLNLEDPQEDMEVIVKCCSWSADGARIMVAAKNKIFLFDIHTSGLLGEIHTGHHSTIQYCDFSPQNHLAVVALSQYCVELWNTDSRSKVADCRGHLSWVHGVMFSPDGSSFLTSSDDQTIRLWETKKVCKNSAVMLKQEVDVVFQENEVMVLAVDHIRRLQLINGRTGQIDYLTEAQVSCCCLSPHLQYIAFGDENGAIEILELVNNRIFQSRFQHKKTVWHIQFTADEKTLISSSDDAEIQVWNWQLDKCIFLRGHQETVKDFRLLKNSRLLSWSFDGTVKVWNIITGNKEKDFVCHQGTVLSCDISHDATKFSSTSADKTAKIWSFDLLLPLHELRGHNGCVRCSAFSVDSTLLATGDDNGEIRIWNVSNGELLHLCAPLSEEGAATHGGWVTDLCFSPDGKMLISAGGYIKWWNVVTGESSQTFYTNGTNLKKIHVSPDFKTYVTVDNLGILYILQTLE

Protein RecA = target: T4, Protein RecA (Mycobacterium tuberculosis, UniProt P9WHJ3); test: Fluorescence Cell-Free Homogeneous Dose Retest to Identify Inhibitors of RecA-Intein Splicing Activity. [Related pubchem assays (depositor defined):AID2097, AID2223, AID489010, AID492950]; type: functional
T4 sequence (P9WHJ3 whole entry): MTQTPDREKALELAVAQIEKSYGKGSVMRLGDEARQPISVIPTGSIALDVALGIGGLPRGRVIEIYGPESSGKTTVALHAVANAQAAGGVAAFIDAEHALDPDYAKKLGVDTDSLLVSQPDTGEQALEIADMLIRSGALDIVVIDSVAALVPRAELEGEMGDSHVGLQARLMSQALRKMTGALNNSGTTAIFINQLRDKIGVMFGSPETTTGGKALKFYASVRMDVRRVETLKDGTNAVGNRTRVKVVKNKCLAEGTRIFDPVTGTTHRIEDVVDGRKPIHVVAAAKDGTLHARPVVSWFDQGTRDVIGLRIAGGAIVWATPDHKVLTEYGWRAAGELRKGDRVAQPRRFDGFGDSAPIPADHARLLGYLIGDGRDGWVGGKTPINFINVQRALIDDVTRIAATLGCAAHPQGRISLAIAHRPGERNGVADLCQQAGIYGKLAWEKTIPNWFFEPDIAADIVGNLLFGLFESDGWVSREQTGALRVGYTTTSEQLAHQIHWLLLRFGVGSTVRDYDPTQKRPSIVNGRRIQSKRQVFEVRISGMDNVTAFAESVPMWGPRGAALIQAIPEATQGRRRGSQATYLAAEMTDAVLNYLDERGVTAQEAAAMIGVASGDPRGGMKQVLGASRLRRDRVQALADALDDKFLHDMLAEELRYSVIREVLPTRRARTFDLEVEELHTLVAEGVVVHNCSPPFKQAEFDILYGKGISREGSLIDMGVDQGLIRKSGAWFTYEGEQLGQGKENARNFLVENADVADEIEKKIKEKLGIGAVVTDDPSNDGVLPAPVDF

Escherichia coli = test: microbe, parasite or virus in culture
HeLa = test: ATP-based viability loss in HeLa cells – cell-based, CellTiter-Glo luminescence, cherry-pick samples, cytotoxicity control for MITF activator project, dose response (AID 540259); type: functional; details: Homo sapiens
Tumor necrosis factor = Tumor necrosis factor (Homo sapiens, UniProt P01375); test: analog potency on TNFa NF-kB signaling – cell-based, revised, SAR follow-up (AID 2337); type: functional
Chain of Tumor necrosis factor (P01375 whole entry, the tested form may be a part): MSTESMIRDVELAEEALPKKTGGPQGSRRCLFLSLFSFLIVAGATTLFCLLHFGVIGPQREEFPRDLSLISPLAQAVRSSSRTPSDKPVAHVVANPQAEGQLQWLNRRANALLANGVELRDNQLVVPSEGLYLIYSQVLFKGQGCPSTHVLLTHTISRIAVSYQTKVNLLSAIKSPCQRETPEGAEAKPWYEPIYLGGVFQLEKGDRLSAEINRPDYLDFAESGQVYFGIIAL

[4] = target: T5, Nucleotide-binding oligomerization domain-containing protein 1 (Homo sapiens, UniProt Q9Y239); test: blockers of NOD1 pathway activity – revised, SAR follow-up (AID 2333); type: functional
T5 sequence (Q9Y239 whole entry): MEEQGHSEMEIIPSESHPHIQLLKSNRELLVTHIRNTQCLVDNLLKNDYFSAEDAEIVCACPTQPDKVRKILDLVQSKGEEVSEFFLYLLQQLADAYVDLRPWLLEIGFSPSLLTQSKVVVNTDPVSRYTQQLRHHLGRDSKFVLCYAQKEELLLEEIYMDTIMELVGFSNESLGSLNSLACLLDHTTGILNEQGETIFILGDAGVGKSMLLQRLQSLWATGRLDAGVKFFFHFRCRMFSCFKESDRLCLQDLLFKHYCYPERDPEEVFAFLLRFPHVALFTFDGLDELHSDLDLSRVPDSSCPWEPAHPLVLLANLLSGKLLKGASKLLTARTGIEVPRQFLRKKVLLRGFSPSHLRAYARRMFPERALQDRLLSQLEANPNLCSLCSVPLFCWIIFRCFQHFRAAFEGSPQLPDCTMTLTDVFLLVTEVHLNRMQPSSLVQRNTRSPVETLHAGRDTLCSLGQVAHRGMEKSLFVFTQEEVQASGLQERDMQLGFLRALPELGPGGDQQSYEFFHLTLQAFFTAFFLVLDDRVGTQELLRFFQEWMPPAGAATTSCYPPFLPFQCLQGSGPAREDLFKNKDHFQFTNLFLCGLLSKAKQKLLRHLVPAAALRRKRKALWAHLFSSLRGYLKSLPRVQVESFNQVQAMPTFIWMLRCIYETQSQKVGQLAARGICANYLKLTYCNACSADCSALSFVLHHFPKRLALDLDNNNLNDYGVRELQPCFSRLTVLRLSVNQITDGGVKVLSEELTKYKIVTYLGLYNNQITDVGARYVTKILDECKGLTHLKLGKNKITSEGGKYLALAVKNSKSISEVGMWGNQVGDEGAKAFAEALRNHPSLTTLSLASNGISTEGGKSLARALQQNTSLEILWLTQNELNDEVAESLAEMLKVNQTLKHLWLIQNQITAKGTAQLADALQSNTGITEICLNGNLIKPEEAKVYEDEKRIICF

HEK293 = test: cells; details: Homo sapiens;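 further: cells exposed to compound for 14 hours overnight before viability readout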

| Compound | IC50 (Phospholipase D1) | IC50 (Phospholipase D2) | AC50 (HeLa) | further results |
| --- | --- | --- | --- | --- |
| C[C@@H](CN1CC=C(n2c(=O)[nH]c3ccccc32)CC1)NC(=O)c1ccc2ccccc2c1 | 0.05 µM (active) | 2.25 µM (active) |  |  |
| Nc1ccc(N(CCO)CCO)cc1 |  |  |  | IC50 [1]: > 80 µM (inactive); AC50 [2]: 256 µM (active); IC50 [3]: 88.3 µM (active); EC50 (Protein RecA): > 380 µM (inconclusive) |
| C[C@H](NC(=O)c1[nH]cnc1C(=O)NCCCCCNC(=O)OC(C)(C)C)c1ccccc1 |  |  |  | AC50 (Escherichia coli): 63.8 µM (active) |
| C[C@@H](CN1CCC(n2c(=O)[nH]c3cc(I)ccc32)CC1)NC(=O)c1ccc2ccccc2c1 | 0.028 µM (active) | 6.37 µM (active) |  |  |
| COc1cccc(C(=O)Nc2ccc(NC(=O)C3CC3)cn2)c1 |  |  | 122 µM (active) |  |
| Cc1ccc(C(=O)N(CCN2CCCCC2)CC2CCCN(C3CCCC3)C2)s1 (configuration not stated) |  |  | 72.6 µM (active) |  |
| CCc1ccc(-c2cn3nc(-c4ccccc4)cnc3n2)cc1 |  |  | 241 µM (active) |  |
| C[C@@H](CN1CCC(n2c(=O)[nH]c3ccccc32)CC1)NC(=O)c1cc2ccccc2s1 | 0.002 µM (active) | 0.22 µM (active) |  |  |
| CC(=O)N1c2ccc(S(=O)(=O)N3CCN(c4ccc(Cl)cc4)CC3)cc2CC1C (configuration not stated) |  |  |  | IC50 (Tumor necrosis factor): 5.76 µM (active); IC50 [4]: 2.57 µM (active); IC50 (HEK293): > 20 µM (inactive) |

From ChEMBL document CHEMBL1201862, “PubChem BioAssay data set” (2004)
